Experimental data taken from ChEMBL document CHEMBL1135944, “Identification of potent and selective oxytocin antagonists. Part 1: indole and benzofuran derivatives” (Bioorg Med Chem Lett, 2002).

Legend:
Oxytocin receptor [1] = biological target: T1, Oxytocin receptor (Homo sapiens, UniProt P30559); test: Ability to displace [3H]oxytocin from human OT receptor (hOT)
T1 sequence (P30559 whole entry): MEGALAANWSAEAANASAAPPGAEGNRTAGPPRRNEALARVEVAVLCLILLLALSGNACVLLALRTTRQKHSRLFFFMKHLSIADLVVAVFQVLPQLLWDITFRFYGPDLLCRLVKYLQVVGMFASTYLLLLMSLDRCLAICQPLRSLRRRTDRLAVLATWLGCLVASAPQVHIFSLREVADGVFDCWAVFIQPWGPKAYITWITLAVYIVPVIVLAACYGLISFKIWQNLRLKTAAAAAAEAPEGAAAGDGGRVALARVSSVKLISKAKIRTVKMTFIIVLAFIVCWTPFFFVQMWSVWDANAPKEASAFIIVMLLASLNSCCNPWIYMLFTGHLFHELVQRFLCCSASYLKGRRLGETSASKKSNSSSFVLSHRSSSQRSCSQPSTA

[2] = The pharmacokinetic parameter, clearance was reported in dog after intravenous administration; assay type: ADME, organism-based, Canis lupus familiaris; conditions: in vivo
[3] = Bioavailability in dog; assay type: ADME, organism-based, Canis lupus familiaris; conditions: in vivo
Oxytocin receptor [4] = biological target: T1, Oxytocin receptor; test: Compound was tested for its ability to displace [3H]oxytocin from human Oxytocin receptor

Work on `COc1cc(OC2CCN(C(C)=O)CC2)ccc1C(=O)N1CCC(N2C(=O)OCc3ccccc32)CC1` yielded a Ki (Oxytocin receptor [1]) of 10 nM.

Compound `CN1CC(=O)N(CC(=O)NCc2cc3cc(C(=O)N4CCC(N5C(=O)OCc6ccccc65)CC4)ccc3o2)C1=O` has a clearance [2] of 20 mL/min/kg and a Ki (Oxytocin receptor [1]) of 3.16 nM.

Work on `CN1CCC(=O)N(CC(=O)NCc2cc3cc(C(=O)N4CCC(N5C(=O)OCc6ccccc65)CC4)ccc3o2)C1=O` yielded a clearance [2] of 27 mL/min/kg and a Ki (Oxytocin receptor [1]) of 3.98 nM.

`O=C(c1ccc2cc[nH]c2c1)N1CCC(N2C(=O)OCc3ccccc32)CC1` showed a Ki (Oxytocin receptor [1]) of 200 nM.

Compound `CS(=O)(=O)N1CCN(Cc2cc3cc(C(=O)N4CCC(N5C(=O)OCc6ccccc65)CC4)ccc3o2)CC1` has a bioavailability [3] of 100%, a clearance [2] of 7 mL/min/kg and a Ki (Oxytocin receptor [1]) of 63.1 nM.

`CS(=O)(=O)N1CCC[C@@H]1Cn1ccc2cc(C(=O)N3CCC(N4C(=O)OCc5ccccc54)CC3)ccc21` gave a Ki (Oxytocin receptor [1]) of 20 nM.

In the case of `CC(=O)NCC(=O)NCc1cc2cc(C(=O)N3CCC(N4C(=O)OCc5ccccc54)CC3)ccc2o1`, the bioavailability [3] is reported as 16%, the clearance [2] is reported as 18 mL/min/kg and the Ki (Oxytocin receptor [1]) is reported as 15.8 nM.

With `CC1(C)NC(=O)N(CC(=O)NCc2cc3cc(C(=O)N4CCC(N5C(=O)OCc6ccccc65)CC4)ccc3o2)C1=O` the clearance [2] was 20 mL/min/kg and the Ki (Oxytocin receptor [1]) was 15.8 nM.

`CN(CCCn1ccc2cc(C(=O)N3CCC(N4C(=O)OCc5ccccc54)CC3)ccc21)S(C)(=O)=O` showed a Ki (Oxytocin receptor [1]) of 158 nM.

Work on `CS(=O)(=O)NCCn1ccc2cc(C(=O)N3CCC(N4C(=O)OCc5ccccc54)CC3)ccc21` yielded a Ki (Oxytocin receptor [1]) of 316 nM.

Compound `O=C(c1ccc2occc2c1)N1CCC(N2C(=O)OCc3ccccc32)CC1` has a Ki (Oxytocin receptor [1]) of 251 nM.

For `CC(=O)N1CCN(Cc2cc3cc(C(=O)N4CCC(N5C(=O)OCc6ccccc65)CC4)ccc3o2)CC1`, the bioavailability [3] was 44%, the clearance [2] was 11 mL/min/kg and the Ki (Oxytocin receptor [1]) was 79.4 nM.

In the case of `CC(=O)N1CCC[C@@H]1Cn1ccc2cc(C(=O)N3CCC(N4C(=O)OCc5ccccc54)CC3)ccc21`, the Ki (Oxytocin receptor [1]) is reported as 158 nM.

Work on `CC(=O)N(C)CCn1ccc2cc(C(=O)N3CCC(N4C(=O)OCc5ccccc54)CC3)ccc21` yielded a Ki (Oxytocin receptor [1]) of 63.1 nM.

For `CS(=O)(=O)N1CCC[C@H]1Cn1ccc2cc(C(=O)N3CCC(N4C(=O)OCc5ccccc54)CC3)ccc21`, the Ki (Oxytocin receptor [4]) was 126 nM.

With `Cc1c[nH]c2ccc(C(=O)N3CCC(N4C(=O)OCc5ccccc54)CC3)cc12` the Ki (Oxytocin receptor [1]) was 794 nM.

`Cn1ccc2cc(C(=O)N3CCC(N4C(=O)OCc5ccccc54)CC3)ccc21` gave a Ki (Oxytocin receptor [1]) of 126 nM.

In the case of `CC(=O)N1CCCC(c2cc3cc(C(=O)N4CCC(N5C(=O)OCc6ccccc65)CC4)ccc3o2)C1` (centres undefined), the Ki (Oxytocin receptor [1]) is reported as 200 nM.

Compound `CN(CCn1ccc2cc(C(=O)N3CCC(N4C(=O)OCc5ccccc54)CC3)ccc21)S(C)(=O)=O` has a Ki (Oxytocin receptor [1]) of 39.8 nM.

Compound `CC(=O)NCCc1cc2cc(C(=O)N3CCC(N4C(=O)OCc5ccccc54)CC3)ccc2o1` has a bioavailability [3] of 27%, a clearance [2] of 9 mL/min/kg and a Ki (Oxytocin receptor [1]) of 39.8 nM.

Work on `Cc1c(C)n(C[C@H]2CCCN2S(C)(=O)=O)c2ccc(C(=O)N3CCC(N4C(=O)OCc5ccccc54)CC3)cc12` yielded a Ki (Oxytocin receptor [1]) of 398 nM.

In the case of `O=C(Cc1cccnc1)NCc1cc2cc(C(=O)N3CCC(N4C(=O)OCc5ccccc54)CC3)ccc2o1`, the clearance [2] is reported as 49 mL/min/kg and the Ki (Oxytocin receptor [1]) is reported as 25.1 nM.

With `CN(Cc1cc2cc(C(=O)N3CCC(N4C(=O)OCc5ccccc54)CC3)ccc2o1)C(=O)CN1C(=O)CNC1=O` the bioavailability [3] was 12%, the clearance [2] was 15 mL/min/kg and the Ki (Oxytocin receptor [1]) was 25.1 nM.

For `O=C(c1ccc2[nH]ccc2c1)N1CCC(N2C(=O)OCc3ccccc32)CC1`, the Ki (Oxytocin receptor [1]) was 200 nM.

Compound `CC(=O)NCc1cc2cc(C(=O)N3CCC(N4C(=O)OCc5ccccc54)CC3)ccc2o1` has a clearance [2] of 8 mL/min/kg and a Ki (Oxytocin receptor [1]) of 63.1 nM.

With `O=C(CN1C(=O)CNC1=O)NCc1cc2cc(C(=O)N3CCC(N4C(=O)OCc5ccccc54)CC3)ccc2o1` the bioavailability [3] was 8%, the clearance [2] was 17 mL/min/kg and the Ki (Oxytocin receptor [1]) was 6.31 nM.

In the case of `CC(=O)N1CCC(c2cc3cc(C(=O)N4CCC(N5C(=O)OCc6ccccc65)CC4)ccc3o2)CC1`, the bioavailability [3] is reported as 49%, the clearance [2] is reported as 6 mL/min/kg and the Ki (Oxytocin receptor [1]) is reported as 63.1 nM.

`O=C(c1ccc2[nH]ccc2n1)N1CCC(N2C(=O)OCc3ccccc32)CC1` gave a Ki (Oxytocin receptor [1]) of 794 nM.

Work on `Cc1nc(-c2cccs2)ncc1C(=O)N1CCC(N2C(=O)OCc3ccccc32)CC1` yielded a Ki (Oxytocin receptor [1]) of 158 nM.

With `O=C(c1ccc2ccoc2c1)N1CCC(N2C(=O)OCc3ccccc32)CC1` the Ki (Oxytocin receptor [1]) was 398 nM.

Compound `CC1OC(=O)N(CC(=O)NCc2cc3cc(C(=O)N4CCC(N5C(=O)OCc6ccccc65)CC4)ccc3o2)C1=O` (centres undefined) has a Ki (Oxytocin receptor [1]) of 25.1 nM.

Compound `CC(=O)NCCn1ccc2cc(C(=O)N3CCC(N4C(=O)OCc5ccccc54)CC3)ccc21` has a Ki (Oxytocin receptor [1]) of 398 nM.

`CS(=O)(=O)N1CCC[C@@H]1Cc1coc2cc(C(=O)N3CCC(N4C(=O)OCc5ccccc54)CC3)ccc12` gave a Ki (Oxytocin receptor [1]) of 200 nM.

In the case of `CS(=O)(=O)N1CCC(c2cc3cc(C(=O)N4CCC(N5C(=O)OCc6ccccc65)CC4)ccc3o2)CC1`, the bioavailability [3] is reported as 69%, the clearance [2] is reported as 9 mL/min/kg and the Ki (Oxytocin receptor [1]) is reported as 79.4 nM.

Compound `Cc1nc(-c2ccncc2)sc1C(=O)N1CCC(N2C(=O)OCc3ccccc32)CC1` has a Ki (Oxytocin receptor [1]) of 126 nM.

`O=C(c1ccc2ncsc2c1)N1CCC(N2C(=O)OCc3ccccc32)CC1` showed a Ki (Oxytocin receptor [1]) of 794 nM.

Compound `CC(=O)N1CCC[C@@H]1c1cc2cc(C(=O)N3CCC(N4C(=O)OCc5ccccc54)CC3)ccc2o1` has a clearance [2] of 31 mL/min/kg and a Ki (Oxytocin receptor [1]) of 25.1 nM.

`CN(CCn1cnc2cc(C(=O)N3CCC(N4C(=O)OCc5ccccc54)CC3)ccc21)S(C)(=O)=O` gave a Ki (Oxytocin receptor [1]) of 398 nM.

For `Cc1cc2cc(C(=O)N3CCC(N4C(=O)OCc5ccccc54)CC3)ccc2[nH]1`, the Ki (Oxytocin receptor [1]) was 126 nM.

Work on `Cc1cc(C(=O)N2CCC(N3C(=O)OCc4ccccc43)CC2)cc2ccn(C[C@H]3CCCN3S(C)(=O)=O)c12` yielded a Ki (Oxytocin receptor [1]) of 10 nM.

Work on `O=C(CN1CCCC1=O)NCc1cc2cc(C(=O)N3CCC(N4C(=O)OCc5ccccc54)CC3)ccc2o1` yielded a clearance [2] of 34 mL/min/kg and a Ki (Oxytocin receptor [1]) of 25.1 nM.
